Measured values taken from US4708871A, “Antigenically active amino acid sequences” (priority 1983, dated 1987).
“Also recorded” adds a separate entry of the source. No end group written: not given here.

How the values were obtained:
Assay type in all cases: binding, rabbit
[1] = tested on: anti-virus-subunit, type O1 antiserum
[2] = tested on: anti-VP1, type O1 antiserum
[3] = tested on: anti-intact virus particle, type O1 antisera
[4] = tested on: anti-intact virus particle, type C1 antiserum

Row | Substance | Reactive antibody in anti-subunit sera (ELISA) [1] | Activity with another anti-VP1 serum (ELISA) [2] | Reactive antibody in anti-VP1 sera (ELISA) [2] | Change of activity, absorbed compared to non-absorbed serum [3] | Reactive antibody in anti-intact virus serum after absorption with purified virus (ELISA) [3] | Reactive antibody in whole anti-intact virus sera (ELISA) [3] | Reaction with antiserum to type C1 (ELISA) [4]
1 | DLQVLA [compound 147] | not observed | showed nothing | only weakly present | loss of activity | absent | present; also recorded: reacted | did not react at all
2 | GDLQVL [GDLQVL] | not observed | showed nothing | only weakly present | loss of activity | absent | present; also recorded: reacted | did not react at all
